Results taken from patent US20230286930A1, “N -SUBSTITUTED 4-(1,3-ARYLOXAZOLO-2-YL)PHENYL COMPOUNDS FOR THE TREATMENT AND PROPHYLAXIS OF HEPATITIS B VIRUS INFECTION” (Hoffmann-La Roche Inc., priority 2020, published 2023).

How the values were obtained:
[1] = PHH natural infection assay, cytotoxicity (Cell Counting Kit-8); type: cell-based; details: human
Procedure: (§1) Detailed procedures regarding primary human hepatocyte (PHH) HBV natural infection assay are described as below. One tube of frozen PHH (10 million cells) is thawed in 37° C. water bath and then transferred to 20 mL of PHH thawing medium (Sigma, InVitroGRO HT Medium, Cat. S03319) with gently mixing. The cells were then centrifuged at […] for 5 min, the supernatant was discarded and the tube was refilled with 25 mL of PHH plating medium (Sigma, InVitroGRO CP Medium, Cat. S03317). The tube was shaken very gently to re-suspend all cells, and then 50 μL of cells were transferred to each well 384-well collagen I coated plate with appropriate liquid handling equipment, e.g. Integra VIAFLO384 or Agilent Bravo. The cells were then cultured for 24 hours in a cell incubator. For HBV infection, after PHH attachment on the culture plate, the plating medium was removed and replenished with PHH culture medium containing HBV virus. The PHH culture medium was prepared with Dulbecco's Modified Eagle Medium (DMEM)/F12 (1:1 in volume ratio) containing 10% fetal bovine serum (Gibco, Cat. 10099141), 5 ng/mL human epidermal growth factor (Gibco, Cat.PHG0311L), 20 ng/mL dexamethasone (Sigma, Cat.D4902-100 mg), 250 ng/mL human recombinant insulin (Gibco, Cat.41400045) and 100 U/mL penicillin. HBV virus at 200 genome equivalent (GE) per cell with 4% PEG8000 (Sigma, Cat.P1458) containing culture medium were added to the PHH culture medium for infection. The cells were then cultured for 24 hours in cell incubator. Then the cell culture supernatant was removed. The HBV-infected PHH were cultured with sandwich culture method with PHH culture medium containing 1% DMSO and 0.25 mg/mL matrix gel for 72 hours. The supernatant was then refreshed with PHH culture medium containing different concentrations of testing compounds for two times with 72-hour interval. At the end of treatment, the supernatant was collected for viral markers measurements, including HBsAg, HBeAg, HBV DNA and cytotoxicity. HBsAg and HBeAg were detected using alphalisa method using their specific antibodies. For HBV DNA detection, HBV DNA Quantitative Fluorescence Diagnostic Kit (Sansure Biotech Inc.) was used following the manufacture's protocol. Cytotoxicity was determined using Cell Counting Kit-8 (CCK8, Dojindo Molecular Technologies, Inc.).

[2] = test system: HBsAg; experiment: PHH natural infection assay, HBsAg (alphalisa); type: cell-based, HBV; details: Hepatitis B virus, read-out: HBsAg IC50
Procedure: as §1
(§2) The compounds of the present invention were tested for their capacity to inhibit HBsAg and HBeAg as described herein.

[3] = test system: HBeAg; experiment: PHH natural infection assay, HBeAg (alphalisa); type: cell-based, HBV; details: Hepatitis B virus, read-out: HBeAg IC50
Procedure: as §1, §2

| Compound | CC50 at 144 h [1] | IC50 [2] | IC50 [3] |
| --- | --- | --- | --- |
| O=C(Nc1ccc(-c2nc3cccc(F)c3o2)cc1)C1CC1 [Example 20, N-[4-(7-fluoro-1,3-benzoxazol-2-yl)phenyl]cyclopropanecarboxamide] | > 100 µM | 0.7 µM | 0.69 µM |
| O=C(Nc1ccc(-c2nc3ccc(F)cc3o2)cc1)C1CCSCC1 [Example 4, N-[4-(6-fluoro-1,3-benzoxazol-2-yl)phenyl]tetrahydrothiopyran-4-carboxamide] | > 100 µM | 1.08 µM | 0.64 µM |
| O=C(Nc1ccc(-c2nc3cccc(F)c3o2)cc1)C1CC2CCC(C1)O2 (stereo not drawn) [Example 22, N-[4-(7-fluoro-1,3-benzoxazol-2-yl)phenyl]-8-oxabicyclo[3.2.1]octane-3-carboxamide] | > 100 µM | 0.96 µM | 1.23 µM |
| CC1(C(=O)Nc2ccc(-c3nc4ccc(F)cc4o3)cc2)CCCO1 (stereo not drawn) [Example 5, N-[4-(6-fluoro-1,3-benzoxazol-2-yl)phenyl]-2-methyl-tetrahydrofuran-2-carboxamide] | > 100 µM | 1.45 µM | 1.46 µM |
| O=C(Nc1ccc(-c2nc3ccc(F)c(F)c3o2)cc1)C1CCOC1 (stereo not drawn) [Example 82, N-[4-(6,7-difluoro-1,3-benzoxazol-2-yl)phenyl]tetrahydrofuran-3-carboxamide] | > 100 µM | 0.52 µM | 0.55 µM |
| O=C(Nc1ccc(-c2nc3c(F)cccc3o2)cc1)C1CCS(=O)(=O)CC1 [Example 55, N-[4-(4-fluoro-1,3-benzoxazol-2-yl)phenyl]-1,1-dioxo-thiane-4-carboxamide] | > 100 µM | 2.96 µM | 2.8 µM |
| Cc1nnc(C(=O)Nc2ccc(-c3nc4ccc(F)c(F)c4o3)cc2)o1 [Example 80, N-[4-(6,7-difluoro-1,3-benzoxazol-2-yl)phenyl]-5-methyl-1,3,4-oxadiazole-2-carboxamide] | > 100 µM | 1.34 µM | 2.11 µM |
| O=C(Nc1ccc(-c2nc3ccc(F)c(F)c3o2)cc1)C1CCS(=O)(=O)C1 (stereo not drawn) [Example 83, N-[4-(6,7-difluoro-1,3-benzoxazol-2-yl)phenyl]-1,1-dioxo-thiolane-3-carboxamide] | > 100 µM | 1.79 µM | 2.54 µM |
| O=C(Nc1ccc(-c2nc3cccnc3o2)cc1)C1CCS(=O)(=O)C1 (stereo not drawn) [Example 63, N-(4-oxazolo[5,4-b]pyridin-2-ylphenyl)-1,1-dioxo-thiolane-3-carboxamide] | > 100 µM | 2.53 µM | 4.83 µM |
| O=C(Nc1ccc(-c2nc3cccnc3o2)cc1)[C@H]1CCS(=O)(=O)C1 (single isomer, unassigned) [Example 86-a] | > 100 µM | 4.42 µM | 7.32 µM |
| O=C(Nc1ccc(-c2nc3ccc(Cl)cc3o2)cc1)C1CCOC1 (stereo not drawn) [Example 8, N-[4-(6-chloro-1,3-benzoxazol-2-yl)phenyl]tetrahydrofuran-3-carboxamide] | > 100 µM | 0.92 µM | 0.82 µM |
| CCCC(=O)Nc1ccc(-c2nc3ccc(Cl)cc3o2)cc1 [Example 9, N-[4-(6-chloro-1,3-benzoxazol-2-yl)phenyl]butanamide] | > 100 µM | 1.19 µM | 1.46 µM |
| CC(C)(C)C(=O)Nc1ccc(-c2nc3ccc(F)cc3o2)cc1 [Example 3, N-[4-(6-fluoro-1,3-benzoxazol-2-yl)phenyl]-2,2-dimethyl-propanamide] | > 100 µM | 1.23 µM | 1.63 µM |
| COc1ccc2nc(-c3ccc(NC(=O)C4CCOC4)cc3)oc2n1 (stereo not drawn) [Example 72, N-[4-(5-methoxyoxazolo[5,4-b]pyridin-2-yl)phenyl]tetrahydrofuran-3-carboxamide] | > 100 µM | 2.22 µM | 2.61 µM |
| O=C(Nc1ccc(-c2nc3cccc(F)c3o2)cc1)C1CC1(F)F (stereo not drawn) [Example 27, 2,2-difluoro-N-[4-(7-fluoro-1,3-benzoxazol-2-yl)phenyl]cyclopropanecarboxamide] | > 100 µM | 1.1 µM | 0.71 µM |
| O=C(Nc1ccc(-c2nc3c(F)cccc3o2)cc1)C1CS(=O)(=O)C1 [Example 57, N-[4-(4-fluoro-1,3-benzoxazol-2-yl)phenyl]-1,1-dioxo-thietane-3-carboxamide] | > 100 µM | 8.19 µM | 9.08 µM |

| Compound | CC50 at 144 h [1] | IC50 [2] | IC50 [3] |
| --- | --- | --- | --- |
| O=C(Nc1ccc(-c2nc3cc(Cl)ccc3o2)cc1)[C@@H]1CCOC1 (single isomer, unassigned) [Example 87-a] | > 100 µM | 4.09 µM | 4.05 µM |
| O=C(Nc1ccc(-c2nc3cccc(F)c3o2)cc1)C1COCCO1 (stereo not drawn) [Example 23, N-[4-(7-fluoro-1,3-benzoxazol-2-yl)phenyl]-1,4-dioxane-2-carboxamide] | > 100 µM | 0.65 µM | 0.52 µM |
| O=C(Nc1ccc(-c2nc3cccc(F)c3o2)cc1)C1CCOC1 (stereo not drawn) [Example 15, N-[4-(7-fluoro-1,3-benzoxazol-2-yl)phenyl]tetrahydrofuran-3-carboxamide] | > 100 µM | 0.99 µM | 1.07 µM |
| CC(O)C(=O)Nc1ccc(-c2nc3cc(Cl)ccc3o2)cc1 (stereo not drawn) [Example 77, N-[4-(5-chloro-1,3-benzoxazol-2-yl)phenyl]-2-hydroxy-propanamide] | > 100 µM | 2.85 µM | 2.54 µM |
| CC(C)(C)C(=O)Nc1ccc(-c2nc3cccc(F)c3o2)cc1 [Example 19, N-[4-(7-fluoro-1,3-benzoxazol-2-yl)phenyl]-2,2-dimethyl-propanamide] | > 100 µM | 0.68 µM | 0.98 µM |
| CC(=O)OC1(C(=O)Nc2ccc(-c3nc4cccc(F)c4o3)cc2)CCOCC1 [Example 26, [4-[[4-(7-fluoro-1,3-benzoxazol-2-yl)phenyl]carbamoyl]tetrahydropyran-4-yl] acetate] | 73.5 µM | 1.08 µM | 0.84 µM |
| CC(O)C(=O)Nc1ccc(-c2nc3cccc(F)c3o2)cc1 (stereo not drawn) [Example 24, N-[4-(7-fluoro-1,3-benzoxazol-2-yl)phenyl]-2-hydroxy-propanamide] | > 100 µM | 0.94 µM | 1.8 µM |
| Cc1ccc2nc(-c3ccc(NC(=O)C4CCOC4)cc3)oc2n1 (stereo not drawn) [Example 71, N-[4-(5-methyloxazolo[5,4-b]pyridin-2-yl)phenyl]tetrahydrofuran-3-carboxamide] | > 100 µM | 9.29 µM | 17.5 µM |
| O=C(Nc1ccc(-c2nc3cccc(F)c3o2)cc1)C1CCOCC1 [Example 28, N-[4-(7-fluoro-1,3-benzoxazol-2-yl)phenyl]tetrahydropyran-4-carboxamide] | > 100 µM | 0.96 µM | 1 µM |
| O=C(Nc1ccc(-c2nc3cccc(F)c3o2)cc1)c1ccoc1 [Example 11, N-[4-(7-fluoro-1,3-benzoxazol-2-yl)phenyl]furan-3-carboxamide] | > 100 µM | 2.06 µM | 5.62 µM |
| O=C(Nc1ccc(-c2nc3c(F)cccc3o2)cc1)c1nccs1 [Example 44, N-[4-(4-fluoro-1,3-benzoxazol-2-yl)phenyl]thiazole-2-carboxamide] | > 100 µM | 1.33 µM | 1.28 µM |
| CC1(C(=O)Nc2ccc(-c3nc4cccc(F)c4o3)cc2)COC1 [Example 12, N-[4-(7-fluoro-1,3-benzoxazol-2-yl)phenyl]-3-methyl-oxetane-3-carboxamide] | > 100 µM | 0.48 µM | 0.63 µM |
| CC(C)OC(=O)Nc1ccc(-c2nc3c(F)cccc3o2)cc1 [Example 60, isopropyl N-[4-(4-fluoro-1,3-benzoxazol-2-yl)phenyl]carbamate] | > 100 µM | 5.04 µM | 3 µM |
| COC(C)C(=O)Nc1ccc(-c2nc3cccnc3o2)cc1 (stereo not drawn) [Example 62, 2-methoxy-N-(4-oxazolo[5,4-b]pyridin-2-ylphenyl)propanamide] | > 100 µM | 1.61 µM | 3.29 µM |
| COC(=O)Nc1ccc(-c2nc3c(F)cccc3o2)cc1 [Example 58, methyl N-[4-(4-fluoro-1,3-benzoxazol-2-yl)phenyl]carbamate] | > 100 µM | 5.96 µM | 8.77 µM |
